Laboratory results: patent US6337182B1, “Method for the quantitative determination of DNA sequences” (Dade Behring Marburg GmbH, priority 1990, dated 2002)
“And” between values parts separate entries of the source, which are not always exact repeats. Equal entries are not always repeated.

Test system: TaqI-endonuclease site TCGA (2508-2511) of exon 3 of the c-Ha-ras gene
Assay: Detection of ethylnitrosourea induced mutations in the TaqI site of c-Ha-ras exon 3 in cultured human fibroblasts (selective PCR, plaque hybridization)
Format: cell-based
Description: Monolayer cultures of human foreskin fibroblasts 3229 (other cell lines of the same origin work equally well) are treated with the carcinogen ethylnitrosourea (ENU, 2mM) in DMSO or sham-treated with DMSO only and harvested 3 days later. Total DNA is extracted and digested exhaustively with BamHI yielding a 6.6 Kb fragment containing the c-Ha-ras gene. The digestion mixture is separated on a 1% agarose gel and the DNA in the region from 6.0-7.0 Kb eluted in a “Biotrap” apparatus as described in Example I. The completeness of the BamHI digestion and the recovery of the c-Ha-ras sequences from the gel are monitored by Southern-blotting with a 6.6 Kb c-Ha-ras probe. “Biotrap” purified DNA (6.0-7.0 Kb, corresponding to 25 μg BamHI digested genomic DNA) is then exhaustively digested with TaqI endonuclease and a fragment containing the TaqI site 2508-2511 (TCGA) of the c-Ha-ras gene amplified as described below and illustrated in FIG. 2. At the outset of the amplification 10 copies of an authentic “standard” sequence are added which contain the sequence ACGT at residues 2508-2511 (and a G-instead of the C residue at position 2503), but are otherwise identical to wt c-Ha-ras.
The digested DNA was amplified, utilizing a “nested primer approach” to selectively amplify only DNA containing a mutated TaqI restriction site.
1. Amplification Cycles 1-15. The cycles 1-15 were conducted with the outer primers (see FIG. 2) yielding a 237 bp fragment. Each cycle consists of a melting temperature of 81° C. (1.1 min), an annealing temperature of 55° C. (0.8 min), and an extension temperature of 65° C. (0.3 min). The initial contents of each amplification tube are as follows: 2.5 μl of “digested DNA” (i.e. TaqI digested 6.0-7.0 Kb BamHI fragment population described above); 0.75 μg of each outer primer (primers 1 and 2, see FIG. 2); 25 mM each of dATP, dCTP, dGTP and dTTP; 21% DMSO; 66.6 mM Tris-HCl, pH 8.8, 16.6 mM ammonium sulfate; 6.7 mM magnesium chloride; 10 mM 2-merc:aptoethanol, 6.7 μM EDTA, and 1.5 units Taq polymerase, in a total volume of 25 μl. To prevent evaporation during temperature cycling, an overlay of 3-4 drops of paraffin oil is added to each tube. (Note: Taq polymerase is added to the tubes after an initial melting period of 3 minutes at 92° C. Subsequently, one μl additions of a TaqI endonuclease-containing TaqI Mix are made to the appropriate amplification tubes during the annealing periods of cycles 1, 3, 5, 7 , 9, 11, 13 and 15). The TaqI mix contains 25 mM each of DATP, dCTP, dGTP and dTTP; 21% DMSO; 66.6 mM Tris-HC1, pH 8.8; 16.6 mM ammonium sulfate; 6.7 mM magnesium chloride; 10 mM 2-mercaptoethanol; 6.7 μm EDTA; 0.12 units/μl Taq polymerase and 1.2 units/μl TaqI endonuclease.
Amplification cycles 16-25 are conducted at a higher melting temprature (91° C.) and a lower DMSO concentration (12%) with the outer primers (primers 1 and 2, see FIG. 2). Each cycle consists of a melting temperature of 91° C. (0.8 min) and an annealing temperature of 57° C. (0.4 min). After the 15th cycle, the DMSO concentration is reduced to 12% by transferring 16 μl of each amplification solution to new tubes which contain 11 μl of a DMSO-free mixture consisting of 229 ng of each outer primer/11 μl; 25 mM each of dATP, dCTP, dGTP and dTTP; 66.6 mM Tris-HCl, pH 8.8; 16.6 mM ammonium sulfate; 6.7 mM magnesium chloride, 10 mM 2.-mercaptoethanol and 6.7 μM EDTA. Paraffin oil (3 drops) is added to each tube and the 16th cycle begun with an initial melting period of 3 min at 92° C., after which 1.5 units of Taq polymerase is added to each tube.
Amplification cycles 26-41 are conducted with the inner primers (primers 3 and 4, see FIG. 2), which contain “EcoRI tails” to facilitate later ligation into phage arms. With the chosen inner primers a 184 bp fragment is synthesized. In order to reduce competition between outer and inner primers, the outer primer concentration is reduced by a factor of 121 relative to the inner primer concentration. […]

[1] = mean of 4 Petri dishes, 2 mM ethylnitrosourea, human fibroblasts (3229)

`CCN(N=O)C(N)=O` [ethylnitrosourea] was tested, and the “copies of mutated sequence TCTA in the original DNA sample” value (25 μg DNA, 10 copies of standard gave 17% plaques, mutation 7%) was 6 copies, the “plaques containing wt sequence DNA or any of the remaining 11 possible base-pair mutations” value (2 mM ethylnitrosourea, human fibroblasts (3229)) was “No plaques were detected” and the “frequency of induced base-pair mutation TCGA→TCTA at sequence 2508-2511 of the human c-Ha-ras gene” value (2 mM, human fibroblasts 3229, estimated against 10 copies of standard sequence) was ~7.5 mutations in 10^7 c-Ha-ras genes. The mutation frequency (TCGA→TCTA, 2 mM, human fibroblasts 3229, 25 μg DNA) was ~7.5×10^−7 per c-Ha-ras gene, the “plaques containing mutated sequence TCTA, mean” value [1] was 13.2 and the “plaques containing mutated sequence TCTA, mean share” value [1] was “(7%)”. For the same compound, the “plaques containing mutated sequence TCTA” value (number of plaques per Petri dish, DNA from 3 × 10^6 human fibroblasts (3229) treated with 2 mM ethylnitrosourea, harvested 3 days later) was 16 and 13 and 12.
